Results published in the METLIN SMRT retention time set (Domingo-Almenara et al. 2019).

Experiment: gradient 5% acetonitrile 3 min, to 50% in 2 min, to 85% in 15 min, held 3 min, 100 µL/min
Conditions: column: Zorbax Extend-C18 2.1 x 50 mm; eluents: water / acetonitrile, 0.1% formic acid
Summary of the method: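 Standards, all pure, were combined into mixtures of ~100 molecules and run at 100 μL/min on a Zorbax Extend-C18 column (2.1 × 50 mm, 1.8 μm) with water and acetonitrile, each containing 0.1% formic acid. A coupled quadrupole time-of-flight mass spectrometer operated in positive and negative ionization mode. Retention time values come from computationally picked adduct peaks, each inspected manually.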

Structure (SMILES) | RP-LC retention time [s]
O=C(C1CC1)N1CCc2sc(S(=O)(=O)Nc3cccc(Cl)c3)cc2C1 | 879
CCN1C(=O)COc2ccc(-c3csc(NC(=O)c4ccc(OC)cc4)n3)cc21 | 976
COc1cccc(-n2nnc(C(=O)O)c2C(F)(F)F)c1 | 752
Cc1cc(F)ccc1NC(=O)C1CCCN(c2cnc3nccnc3c2)C1 (stereo not given) | 711
Cc1ccc2nc(CN3CCN(C(=O)Nc4ccccc4C)CC3)oc2c1 | 679
Cc1[nH]c(C(=O)N2CCCC(C(=O)N3CCN(c4ccccc4)CC3)C2)c(C)c1C(=O)OC(C)C (stereo not given) | 892
Cc1ccn2cc(C(=O)NCc3ccc4c(c3)OCO4)nc2c1 | 679
CSc1ccc(CCNC(=O)c2nnc(-c3ccc(S(=O)(=O)N4CCCCC4)cc3)o2)cc1 | 1090
Cn1c(C(=O)NCCc2c[nH]c3ccccc23)cc2sccc21 | 916
CCOC(=O)c1noc2ncnc(NCc3ccc(OC)cc3)c12 | 938
CC(C)N1C(=O)c2cccnc2Sc2cc(NC(=O)c3ccccc3Cl)ccc21 | 871
CC(C)COc1cc(=O)n2c(c1C(=O)NCCCN1CCOCC1)CCCCC2 | 570
CCn1nnc2cc(-c3noc(C(C)NS(=O)(=O)c4ccc(C)cc4)n3)ccc21 (stereo not given) | 846
CCOC(=O)CNC(=O)CN(C(=O)N1CCN(C)CC1)S(=O)(=O)c1ccc(C)cc1 | 556
CCN1CCC2(CC1)CN(Cc1cccc(Cl)c1)Cc1ccccc1O2 | 585
COc1ccccc1-c1nc(Cn2nnc(-c3nc(-c4ccc(C)cc4)no3)c2C)c(C)o1 | 1170
CCCN(C)c1nccn2c(=O)n(CC(=O)Nc3ccc(Br)cc3)nc12 | 736
COc1ccc2c(c1)c(CN1CCC(N3C[C@H](OC)[C@@H]3c3cccnc3)CC1)cn2C(C)C | 596
COc1cccc(-c2nnc3sc(CN4CCc5ccccc5C4)cn23)c1 | 582
O=C(CSc1ncn[nH]1)c1ccc2c(c1)OCCO2 | 626
COCCNc1ncc(C(=O)O)c(-c2ccc(OC)cc2)n1 | 658
Cn1c(C2CCN(C(=O)Nc3cccc(Cl)c3)CC2)cc(=O)n2nccc12 | 693
O=C(Nc1cccc2c1CCCC2)C1CCN(S(=O)(=O)c2cccc3nonc23)CC1 | 990

Structure (SMILES) | RP-LC retention time [s]
CS(=O)(=O)NCC1CCC(C(=O)Nc2cccc3nsnc23)CC1 (stereo not given) | 700
Cc1nnc(NC(=O)CSCc2ccco2)s1 | 632
CC(C)NC(=O)NCCC1CCN(S(=O)(=O)c2ccc(F)cc2)CC1 | 782
O=C(CCc1ccccc1)N1CCOc2ccccc2C1 | 861
COc1ccc(N2CC(NC(=O)NN3CCOCC3)CC2=O)cc1 (stereo not given) | 587
COC(=O)Cn1c(C2CC(=O)N(c3ccccc3C)C2)nc2ccccc21 (stereo not given) | 704
COc1ccc(-c2csc(NC(=O)c3cc(OC)c(OC)c(OC)c3)n2)cc1 | 1030
CCNC(=O)NC1CCN(c2nc3ccccc3n(C)c2=O)CC1 | 676
COC(=O)c1ccc(C(=O)Nc2nnc(Cc3ccc(C)cc3)o2)cc1 | 768
CC1=C(c2ccc(C)cc2)S(=O)(=O)N=C1N1CCCN(C(=O)NCC(C)C)CC1 | 822
CCc1cc(C(=O)Nc2cc(C)ccc2OC)nc2ccnn12 | 1190
CCN(CC)C(=O)N1CCC(c2noc(COc3ccc(F)cc3)n2)C1 (stereo not given) | 553
Nc1cc(C2CCN(C(=O)Nc3ccc(Br)cc3F)CC2)no1 | 736
CCOc1coc(C(=O)NCCc2ccc(Cl)cc2)cc1=O | 706
Cc1ccc(-c2ccc3nn(Cc4nc(-c5ccc(OC(F)(F)F)cc5)no4)c(=O)n3n2)cc1 | 1120
CC(C)CN1C(=O)c2cccn2CC1C(=O)NCCCOC(C)C (stereo not given) | 718
CCc1noc(C2(NC(=O)c3cccc(F)c3)CCCCC2)n1 | 949
CN1C(=O)CCc2cc(NS(=O)(=O)c3ccc(F)c(F)c3)ccc21 | 781
O=C(NCCCN1CCOCC1)C(=O)Nc1ccc(Br)cc1F | 625
COc1ccc(NC(=O)c2c(N3CCCC3=O)c3cc(F)ccc3n2C)cc1 | 922
COc1ccc(-c2csc(C)n2)cc1S(=O)(=O)N(C)c1ccc(C)cc1 | 1040
COc1ccc(Cl)cc1NC(=O)C1c2cc(OC)c(OC)cc2C(=O)N(C)C1c1cccnc1 (stereo not given) | 703
